Test results reported in patent US6096747A, “Phenylaminocarbonyl derivatives and processes for their preparation” (Celltech Therapeutics Limited, priority 1992, dated 2000).

Columns and labels:
PDE IV = assay: Isolated enzyme PDE IV inhibition (HL60 cells); type: biochemical; conditions: Ki PDE IV HL60 at (1 μM); pH 7.5, 30° C.; read-out: approximate Ki, PDE IV HL60
Procedure: The potency and selectivity of the compounds of the invention was determined using a battery of distinct PDE isoenzymes as follows:
The enzymes were purified to kinetic homogeneity using standard chromatographic techniques.
Phosphodiesterase activity was assayed as follows. The reaction was conducted in 150 μl of standard mixture containing (final concentrations): 50 mM TES-NaOH buffer (pH 7.5), 10 mM MgCl2, 0.1 μM [^3 H]-cAMP and vehicle or various concentrations of the test compounds. The reaction was initiated by addition of enzyme and conducted at 30° C. for between 5 to 30 mins. The reaction was terminated by addition of 50 μl 2% trifluoroacetic acid containing [^14 C]-5'AMP for determining recovery of the product. An aliquot of the sample was then applied to a column of neutral alumina and the [^3 H]-cAMP eluted with 10 ml 0.1 TES-NaOH buffer (pH8). The [^3 H]-5'-AMP product was eluted with 2 ml 2M NaOH into a scintillation vial containing 10 ml of scintillation cocktail. Recovery of [^3 H]-5'AMP was determined using the [^14 C]-5'AMP and all assays were conducted in the linear range of the reaction.

right atrial muscle = conditions: selective PDE IV / PDE III reference inhibitors; background statement; cited from earlier work
papillary muscle = conditions: selective PDE IV / PDE III reference inhibitors; background statement; cited from earlier work
[1] = non-specific PDE inhibitor; cited from earlier work

Structure (SMILES) | Ki (PDE IV) | direct effects on atria (chronotropic), reference inhibitors (right atrial muscle) | direct effects on papillary muscle (inotropic), reference inhibitors (papillary muscle) | cardiovascular changes [1]
COc1ccc(NC(=O)c2ccccc2)cc1OC1CCCC1 [Example 1, N-Benzoyl-3-cyclopentyloxy-4-methyloxyaniline] | ~391 nM |  |  | 
COc1ccc(NC(=O)c2ccccc2[N+](=O)[O-])cc1OC1CCCC1 [Example 3, 3-Cyclopentyloxy-4-methyloxy-N-(2-Nitrobenzoyl)aniline] | ~179 nM |  |  | 
Cc1[nH]c(=O)c(C#N)cc1-c1ccncc1 [milrinone] |  | positive chronotropic and inotropic effects | positive chronotropic and inotropic effects | 
COc1ccc(C2CNC(=O)C2)cc1OC1CCCC1 (stereo not shown) [rolipram] |  | do not have any direct effects | do not have any direct effects | 
Cn1c(=O)c2[nH]cnc2n(C)c1=O [theophylline] |  |  |  | significant cardiovascular changes such as tachycardia
